Results reported in the CheMixHub viscosity set.
± gives the uncertainty stated by the source.

Experiment: xn = mol fraction of the nth substance listed

O=S1(=O)CCCC1 + CO
viscosity [mPa·s], 101 kPa
Details | 298.15 K | 303.15 K | 308.15 K | 313.15 K | 323.15 K
x1 = 0.0496 | 0.607 ± 0.016 | 0.569 ± 0.015 | – | 0.498 ± 0.013 | 0.437 ± 0.012
x1 = 0.068 | – | 0.5856 ± 0.0062 | 0.5474 ± 0.0058 | 0.5133 ± 0.0055 | –
x1 = 0.0966 | 0.694 ± 0.018 | 0.648 ± 0.017 | – | 0.565 ± 0.015 | 0.495 ± 0.013
x1 = 0.1103 | – | 0.6512 ± 0.0069 | 0.6081 ± 0.0065 | 0.5686 ± 0.0061 | –
x1 = 0.1632 | 0.814 ± 0.021 | 0.757 ± 0.02 | – | 0.661 ± 0.017 | 0.579 ± 0.015
x1 = 0.1658 | – | 0.756 ± 0.008 | 0.7042 ± 0.0075 | 0.6574 ± 0.007 | –
x1 = 0.2274 | – | 0.8999 ± 0.0097 | 0.8344 ± 0.0089 | 0.7787 ± 0.0082 | –
x1 = 0.2282 | 0.985 ± 0.026 | 0.916 ± 0.024 | – | 0.792 ± 0.021 | 0.686 ± 0.018
x1 = 0.306 | 1.227 ± 0.032 | 1.137 ± 0.03 | – | 0.986 ± 0.026 | 0.867 ± 0.023
x1 = 0.3087 | – | 1.13 ± 0.012 | 1.047 ± 0.011 | 0.9753 ± 0.01 | –
x1 = 0.3969 | 1.587 ± 0.042 | 1.458 ± 0.038 | – | 1.238 ± 0.032 | 1.062 ± 0.028
x1 = 0.4056 | – | 1.495 ± 0.017 | 1.378 ± 0.015 | 1.279 ± 0.014 | –
x1 = 0.5037 | 2.208 ± 0.058 | 2.022 ± 0.053 | – | 1.687 ± 0.044 | 1.467 ± 0.038
x1 = 0.5284 | – | 2.142 ± 0.026 | 1.96 ± 0.022 | 1.803 ± 0.02 | –
x1 = 0.6337 | 3.233 ± 0.084 | 2.982 ± 0.078 | – | 2.466 ± 0.064 | 2.125 ± 0.055
x1 = 0.6422 | – | 3.025 ± 0.038 | 2.753 ± 0.032 | 2.515 ± 0.028 | –
x1 = 0.7703 | – | 4.551 ± 0.069 | 4.1 ± 0.05 | 3.722 ± 0.043 | –
x1 = 0.7949 | 5.516 ± 0.14 | 5.126 ± 0.13 | – | 4.165 ± 0.11 | 3.476 ± 0.09

Nc1ccccc1Cl + Clc1cccc(Cl)c1
viscosity [mPa·s], 101 kPa
Details | x1 = 0.1088 | x1 = 0.2155 | x1 = 0.3202 | x1 = 0.4228 | x1 = 0.5235 | x1 = 0.6224 | x1 = 0.7194 | x1 = 0.8147 | x1 = 0.9082
303.15 K | 1.108 ± 0.023 | 1.292 ± 0.027 | 1.499 ± 0.031 | 1.732 ± 0.036 | 1.994 ± 0.042 | 2.288 ± 0.048 | 2.615 ± 0.054 | 2.979 ± 0.062 | 3.382 ± 0.07
308.15 K | 1.043 ± 0.022 | 1.211 ± 0.025 | 1.398 ± 0.029 | 1.607 ± 0.034 | 1.84 ± 0.038 | 2.098 ± 0.044 | 2.382 ± 0.05 | 2.695 ± 0.056 | 3.038 ± 0.063
313.15 K | 0.9857 ± 0.021 | 1.138 ± 0.024 | 1.308 ± 0.027 | 1.496 ± 0.031 | 1.703 ± 0.036 | 1.931 ± 0.04 | 2.179 ± 0.045 | 2.45 ± 0.051 | 2.743 ± 0.057
318.15 K | 0.9257 ± 0.019 | 1.066 ± 0.022 | 1.222 ± 0.025 | 1.392 ± 0.029 | 1.579 ± 0.033 | 1.781 ± 0.037 | 2.001 ± 0.042 | 2.237 ± 0.047 | 2.491 ± 0.052

CCCCOCCOCCO + ClC(Cl)(Cl)Cl
298.15 K, 101.33 kPa
Details | viscosity [mPa·s]
x1 = 0.02 | 0.948 ± 0.024
x1 = 0.038 | 0.989 ± 0.025
x1 = 0.0629 | 1.05 ± 0.026
x1 = 0.0892 | 1.14 ± 0.028
x1 = 0.1363 | 1.29 ± 0.032
x1 = 0.18 | 1.442 ± 0.035
x1 = 0.2249 | 1.63 ± 0.039
x1 = 0.2644 | 1.796 ± 0.043
x1 = 0.3052 | 1.974 ± 0.047
x1 = 0.4307 | 2.594 ± 0.06
x1 = 0.4809 | 2.841 ± 0.065
x1 = 0.5267 | 3.065 ± 0.07
x1 = 0.5721 | 3.292 ± 0.075
x1 = 0.6126 | 3.489 ± 0.079
x1 = 0.6679 | 3.769 ± 0.085
x1 = 0.7225 | 4.032 ± 0.091
x1 = 0.7669 | 4.227 ± 0.095
x1 = 0.8132 | 4.438 ± 0.099
x1 = 0.8674 | 4.688 ± 0.11
x1 = 0.9149 | 4.885 ± 0.11
x1 = 0.9436 | 5.01 ± 0.11
x1 = 0.9724 | 5.074 ± 0.11
